One data set concerns Trypanosoma brucei brucei. Put plainly: Anti-parasitic activity against bloodstream trypomastigote stage of wild-type Trypanosoma brucei brucei Lister 427 after 48 hrs in presence of 5 mM glycerol by resazurin-based assay. Format: functional, organism-based. As to conditions: Lister 427, 48 h.
With `Cc1cc(O)ccc1C(=O)OCCCCCCCCCCCCCCBr`, the EC50 was found to be 7.5 µM.

In another data set the test system is Trypanosoma brucei brucei. The data set can be described thus: Resistance factor, ratio of EC50 for bloodstream trypomastigote stage of wild-type Trypanosoma brucei brucei Lister 427 in presence of 5 mM glycerol to EC50 for bloodstream trypomastigote stage of wild-type Trypanosoma brucei brucei Lister 427. Format: functional.
Conditions: not given
Turning to `N=C(N)c1ccc(OCCCCCOc2ccc(C(=N)N)cc2)cc1` [PENTAMIDINE], the “Ratio EC50” value was 1.14.

`Cc1cc(O)ccc1C(=O)OCCCCCCCCCCCCCCBr`: the “Ratio EC50” value is 0.52.

The test system of another data set is Trypanosoma brucei. Put plainly: Anti-parasitic activity against bloodstream trypomastigote stage of pentamidine/diminazene/melaminophenyl arsenical resistant Trypanosoma brucei B48 after 48 hrs by resazurin-based assay. The conditions noted are these: B48, 48 h. Type of data set: functional, organism-based.
`Cc1cc(O)ccc1C(=O)OCCCCCCCCCCCCCCBr` gave an EC50 of 14.4 µM.

In another data set the test system is Trypanosoma brucei brucei. Put plainly: Resistance factor, ratio of EC50 for bloodstream trypomastigote stage of Trypanosoma brucei brucei AQP triple knock out to EC50 for bloodstream trypomastigote stage of wild-type Trypanosoma brucei brucei Lister 427.
Conditions: not given
Type of data set: functional.
Consider `N=C(N)c1ccc(OCCCCCOc2ccc(C(=N)N)cc2)cc1` [PENTAMIDINE], for which the “Ratio EC50” value was 19.2.

`O=C(O)c1ccc(O)cc1O` [2,4-DIHYDROXYBENZOIC ACID]: the “Ratio EC50” value is on record as 0.96.

As for `Cc1cc(O)ccc1C(=O)OCCCCCCCCCCCCCCBr`, the “Ratio EC50” value stood at 0.5.

In the next data set the test system is Trypanosoma brucei brucei. The data set can be described thus: Anti-parasitic activity against bloodstream trypomastigote stage of Trypanosoma brucei brucei with AQP2/3-dd knock out after 48 hrs by resazurin-based assay. Format: functional, organism-based.
Conditions: not given
Consider `N=C(N)c1ccc(OCCCCCOc2ccc(C(=N)N)cc2)cc1` [PENTAMIDINE], for which the EC50 is 0.047 µM.

In turn, `O=C(NO)c1ccccc1O` [SALICYLHYDROXAMIC ACID] gave an EC50 of 31.9 µM.

Molecule `Cc1cc(O)ccc1C(=O)OCCCCCCCCCCCCCCBr` returned an EC50 of 7.1 µM.

The test system of another data set is Trypanosoma brucei brucei. The data set can be described thus: Anti-parasitic activity against bloodstream trypomastigote stage of Trypanosoma brucei brucei with AQP triple knock out after 48 hrs by resazurin-based assay.
Conditions: not given
Type of data set: functional, organism-based.
For the molecule `N=C(N)c1ccc(OCCCCCOc2ccc(C(=N)N)cc2)cc1` [PENTAMIDINE], the EC50 came out at 0.064 µM.

In turn, `O=C(NO)c1ccccc1O` [SALICYLHYDROXAMIC ACID] gave an EC50 of 8.9 µM.

In the case of `O=C(O)c1ccc(O)cc1O` [2,4-DIHYDROXYBENZOIC ACID], a half-maximal effect (EC50) was put at 16.6 µM.

For the molecule `Cc1cc(O)ccc1C(=O)OCCCCCCCCCCCCCCBr`, the EC50 was 7.2 µM.

System in another data set: not listed separately
Put plainly: Resistance factor, ratio of EC50 for bloodstream trypomastigote stage of pentamidine/diminazene/melaminophenyl arsenical resistant Trypanosoma brucei B48 to EC50 for bloodstream trypomastigote stage of wild-type Trypanosoma brucei brucei Lister 427. Type of data set: functional.
Conditions: not given
Consider `N=C(N)c1ccc(OCCCCCOc2ccc(C(=N)N)cc2)cc1` [PENTAMIDINE], for which the Ratio EC50 is 285.

As for `Cc1cc(O)ccc1C(=O)OCCCCCCCCCCCCCCBr`, the Ratio EC50 amounted to 1.

The subject of a further data set is Trypanosoma brucei brucei. Put plainly: Resistance factor, ratio of EC50 for bloodstream trypomastigote stage of Trypanosoma brucei brucei with AQP2/3-dd knock out to EC50 for bloodstream trypomastigote stage of wild-type Trypanosoma brucei brucei Lister 427. Type of data set: functional.
Conditions: not given
With `N=C(N)c1ccc(OCCCCCOc2ccc(C(=N)N)cc2)cc1` [PENTAMIDINE], the “Ratio EC50” value is given as 14.1.

Consider `Cc1cc(O)ccc1C(=O)OCCCCCCCCCCCCCCBr`, for which the “Ratio EC50” value was 0.49.

System in a further data set: not listed separately
Put plainly: Selectivity index, ratio of CC50 for HFF cells to EC50 for bloodstream trypomastigote stage of wild-type Trypanosoma brucei brucei Lister 427. As to conditions: human, read-out: Ratio CC50/EC50. Format: toxicity.
For `Cc1cc(O)ccc1C(=O)OCCCCCCCCCCCCCCBr`, the selectivity ratio is above 13.

System in the next data set: not listed separately
The data set can be described thus: Cytotoxicity against HFF cells assessed as reduction in cell viability after 30 hrs by resazurin-based assay. The conditions noted are these: human.
Take `Cc1cc(O)ccc1C(=O)OCCCCCCCCCCCCCCBr`: the CC50 at 30 h is above 200 µM.

Another data set deals with Trypanosoma brucei brucei. The data set can be described thus: Anti-parasitic activity against bloodstream trypomastigote stage of wild-type Trypanosoma brucei brucei Lister 427 after 48 hrs by resazurin-based assay. Type of data set: functional, organism-based. The conditions noted are these: Lister 427, 48 h.
Molecule `N=C(N)c1ccc(OCCCCCOc2ccc(C(=N)N)cc2)cc1` [PENTAMIDINE] displayed an EC50 of 0.0033 µM.

Take `Cc1cc(O)ccc1C(=O)OCCCCCCCCCCCCCCBr`: the EC50 was determined as 14.4 µM.

System in the next data set: not listed separately
The data set can be described thus: Inhibition of recombinant N-terminal His6 tagged SUMO-fused Trypanosoma brucei brucei TC221 TAO MTS deletion mutant expressed in Escherichia coli FN102 preincubated for 2 mins followed by ubiquinol-1 addition measured over 2 mins by double beam-dual wavelength UV-spectrophotometry.
Conditions: not given
For `O=C(OCCCCCCCCCCCCCC[P+](c1ccccc1)(c1ccccc1)c1ccccc1)c1ccc(O)cc1O`, the IC50 was 1.46 µM.

On to `O=C(OCCCCCCCCCCCCCCCC[P+](c1ccccc1)(c1ccccc1)c1ccccc1)c1ccc(O)cc1O`, for which the IC50 is above 5 µM.

In the case of `Cc1cc(O)cc(O)c1C(=O)O` [ORSELLINIC ACID], the IC50 came out at 143 µM.

Regarding `Cc1cc(O)ccc1C(=O)O`, the IC50 is 112 µM.

With `O=C(OCCCCCCCCCCCCCCCC[n+]1cccc2ccccc21)c1ccc(O)cc1O`, the IC50 is above 5 µM.

With `O=C(O)c1ccc(O)cc1F`, the IC50 came to 115 µM.

In the case of `O=C(O)c1ccc(O)cc1O` [2,4-DIHYDROXYBENZOIC ACID], the half-maximal inhibitory concentration (IC50) is 116 µM.

With `O=C(OCCCCCCCCCCCCCCBr)c1ccc(O)cc1O`, the IC50 came to 0.0108 µM.

As to `Cc1cc(O)ccc1C(=O)OCCCCCCCCCCCCCCBr`, the IC50 is 0.007 µM.
